From patent publication US7030108B2, “Combating Parkinson's disease-related movement disorder” (Reed Richter, priority 1999, dated 2006) come the findings set out here.

Assay type in all cases: in vivo, human
Data set [1] concerns essential tremor (action tremor). Kind of data set: Treatment of patients with essential / action tremor without Parkinson's disease (case reports). The method, then:
A person with a 20-year history of upper extremity action tremor with a frequency of approximately 8–12 hz. The patient bad no signs or symptoms of Parkinson's disease. […] The patient was started on mirtazapine (Remeron) at a dosage of 30 mg at night.
A person with a lifelong history of action tremor and anxiety but no signs or symptoms of Parkinson's disease was treated. […] Although the tremor always improved with a decrease in the anxiety (using SSRIs and benzodiazepines) the tremor persisted at an unsatisfactory level of severity.
In March, 1998, the patient began medication with a dosage of 15 mg of mirtazapine (Remeron) at night, then on their own volition, increased the administration of the same dose of mirtazapine to twice a day (for a total dose of 30 mg).
Thus, in the patient group involved in the study of Examples 1–6, a total of fifteen individuals was treated with mirtazapine, and of such population, twelve of the patients responded well to treatment with substantial tremor reduction. Of such total of fifteen patients, eight patients had essential tremor, and five of the eight responded. […] Three patients had levodopa-induced dyskinesias and all three responded.

The next data set has as its system sedation. Kind of data set: Sedation / drowsiness side effect in treated patients. As for the experimental part: Two months later, the patient discontinued the administration of mirtazapine because they were oversleeping. Such oversleeping behavior was not believed to relate to the administration of mirtazapine, however. The patient in fact stopped and restarted the mirtazapine multiple times.
A person with a 15 year history of Parkinson's Disease was treated. […] In August, 1997, the patient was started on mirtazapine (Remeron) at a dosage of 3 mg at night to aid in sleep. The next morning the patient's spouse telephoned excitedly to say that the spouse had only shaken for 15 minutes. This positive development continued making their “on” time more functional.
In almost all cases, the improvement in the tremor behavior came literally overnight, that is, after an initial 30 mg dose taken in the evening before retiring. […] Patients were aware of an improvement immediately. During neurological exam, patients described the types of activities that they could perform before and after administration of mirtazapine (e.g., dealing cards, feeding oneself without spilling, being able to return to exercise classes as a consequence of the improvement experienced, etc.).

The next data set relates to tremor. Kind of data set: Patient group of Examples 1-6 treated for tremor / movement disorder (all types).
The subject of data set [2] is levodopa-induced dyskinesias. Kind of data set: Mirtazapine treatment of Parkinson's Disease patients with levodopa/dopamine-induced dyskinesias (case reports). As for the experimental part:
A person with a 15 year history of Parkinson's Disease was treated. […] In August, 1997, the patient was started on mirtazapine (Remeron) at a dosage of 3 mg at night to aid in sleep. […] Throughout the regimen of treatment, the dose of Sinemet remained stable. […] In May 1998, they were started on mirtazapine (Remeron) at a dosage of 30 mg at night. […] No other medication had been changed.

Data set [3] concerns Parkinsonian tremor (resting and action). Kind of data set: Mirtazapine treatment of patients with Parkinsonian tremor (case reports). The method, then: A patient with mild Parkinson's Disease for 4 years experienced recurrent tremor that interfered with their ability to hold and deal cards while playing bridge. […] The patient was administered mirtazapine (Remeron®, Organon) at a dosage of 30 mg per day, taken at night for concomitant depression. […] A person with a nine-year history of Parkinson's Disease characterized by bradykinesia and marked right upper extremity resting tremor was treated. […] In May 1998, they were started on mirtazapine (Remeron) at a dosage of 30 mg at night. […] No other medication had been changed.

Where [4] appears, read: Example 3: person, 30 mg at night, no other medication changed.
Setting [5] is: Example 3, mirtazapine restarted.
Where [6] appears, read: Example 3, several months later, mirtazapine stopped.
Where [7] appears, read: Example 5, 15 mg twice a day (total 30 mg).

In the case of `CC(C)NCC(O)COc1cccc2ccccc12` (stereo not shown) [propranolol], the “response of action tremor” value in data set [1] (Example 5 patient, before mirtazapine) was “seemed to respond to propranolol initially”.

Regarding `CN1CCN2c3ncccc3Cc3ccccc3[C@H]2C1` (racemic) [mirtazapine, 1,2,3,4,10,14b-hexahydro-2-methyl-pyrazino [2,1-a]pyrido [2,3-c]benzazepine], the sedation side effect entry in the data set on sedation (Example 1, patient currently remaining on mirtazapine) was “without experiencing any sedation side effect”. The “drowsiness during the day” value in the data set on sedation (Example 2, 3 mg at night) is “never reported that they were drowsy during the day”. Further, the sedation result in the data set on sedation (patients of the above-referenced examples) is “sedation did not occur”. Also, the “patients responding favorably with marked attenuation of tremor activity” value in the data set on tremor (Example 6, of ten additional patients) is “seven”. In addition, the “patients responding well with substantial tremor reduction” value in the data set with tremor (Examples 1-6, of a total of fifteen individuals) is “twelve”. For the same compound, the “onset of improvement in tremor behavior” value in the data set on tremor (in almost all cases, after an initial 30 mg dose taken in the evening) is reported as “overnight”. Further, the “time the patient had shaken” value in data set [2] (Example 2: person, violent dyskinesias, 3 mg at night, reported the next morning) is 15 min. For the same compound, in data set [2] (Example 2, six months later, Sinemet dose stable), the “dopamine-induced dyskinesias after a new dopa agonist (ropirinole) was added” value is listed as “no increase in dopamine-induced dyskinesias”. Besides, the “patient-reported change in dopamine-induced dyskinesias” value in data set [2] (setting [4]) is listed as “rapid improvement”. Moreover, the “dyskinesia upon restarting medication” value in data set [2] (setting [5]) was “both movement disorders again responded”. In addition, the “dyskinesia after stopping medication” value in data set [2] (setting [6]) was “return of the tremor and dyskinesia”. Besides, in data set [2] (Examples 1-6, of three patients), the “levodopa-induced dyskinesia patients who responded” value is given as “three”. The “patient-reported effect on resting and action tremor (holding cards)” value in data set [3] (Example 1: person, mild Parkinson's Disease, 30 mg per day at night, on Sinemet, within days of initial administration) was “they could hold their cards without embarrassment”. In addition, the “tremor upon reinitiated administration” value in data set [3] (Example 1, mirtazapine reinitiated, Sinemet dose unchanged) was “again experienced resolution of the tremors”. Besides, in data set [3] (Example 1, mirtazapine stopped, Sinemet dose unchanged), the “tremor upon cessation of medication” value is “the tremor (resting and action) returned”. In addition, the “patient-reported change in Parkinsonian tremor” value in data set [3] (setting [4]) was “rapid improvement”. The “tremor upon restarting medication” value in data set [3] (setting [5]) is given as “both movement disorders again responded”. In addition, the “tremor after stopping medication” value in data set [3] (setting [6]) is on record as “return of the tremor”. The “Parkinsonian resting tremor patients who responded” value in data set [3] (Examples 1-6, of four patients (fourth not yet returned for follow-up)) is listed as “three”. Besides, the “postural and kinetic tremors on physical exam” value in data set [1] (Example 4: person, 20-year upper extremity action tremor, 30 mg at night) is listed as “greatly reduced”. For the same compound, the “patient-reported change in action tremor” value in data set [1] (Example 5: person, action tremor and anxiety, 15 mg twice a day (total 30 mg)) is “improvement in the tremor especially when eating or drinking”. Also, in data set [1] (setting [7]), the clinical exam result is given as “improved marginally” and the handwriting result was “remained a problem”. Also, the “essential tremor patients who responded” value in data set [1] (Examples 1-6, of eight patients with essential tremor) is “five”.
